According to the NIST ThermoML archive (doi:10.1016/j.tca.2014.08.016):

Assay: xn = mol fraction of the nth substance listed
Settings: Liquid; for mass density: Buoyancy - hydrostatic balance with magnetic suspension - one sinker; for viscosity: Falling or rolling sphere viscometry

C=CCCCCCC [oct-1-ene] + C=CCCCC
Settings | mass density [kg/m3] | viscosity [mPa·s]
298.15 K, 98 kPa, x1 = 0.2 | 685.08 | 0.317
298.15 K, 98 kPa, x1 = 0.4823 | 696.22 | 0.36
298.15 K, 98 kPa, x1 = 0.6923 | 705.6 | 0.411
298.15 K, 24510 kPa, x1 = 0.2 | 709.99 | 0.395
298.15 K, 24510 kPa, x1 = 0.4823 | 720.99 | 0.444
298.15 K, 24510 kPa, x1 = 0.6923 | 729.5 | 0.511
298.15 K, 49030 kPa, x1 = 0.2 | 727.77 | 0.473
298.15 K, 49030 kPa, x1 = 0.4823 | 736.94 | 0.537
298.15 K, 49030 kPa, x1 = 0.6923 | 745.31 | 0.618
298.15 K, 98060 kPa, x1 = 0.2 | 754.11 | 0.644
298.15 K, 98060 kPa, x1 = 0.4823 | 765.67 | 0.737
298.15 K, 98060 kPa, x1 = 0.6923 | 771.37 | 0.859
298.15 K, 196130 kPa, x1 = 0.2 | 792.06 | 1.053
298.15 K, 196130 kPa, x1 = 0.4823 | 801.39 | 1.225
298.15 K, 196130 kPa, x1 = 0.6923 | 806.92 | 1.47
302.9 K, 98 kPa, x1 = 0.6923 | 703 | 0.396
303.67 K, 98 kPa, x1 = 0.4823 | 692.48 | 0.347
305.25 K, 98 kPa, x1 = 0.2 | 679.54 | 0.304
312.9 K, 98 kPa, x1 = 0.6923 | 696.34 | 0.36
313.35 K, 98 kPa, x1 = 0.4823 | 685.54 | 0.319
313.65 K, 98 kPa, x1 = 0.2 | 672.69 | 0.283
322.39 K, 196130 kPa, x1 = 0.6923 | 796.19 | 1.133
322.63 K, 98060 kPa, x1 = 0.6923 | 759.23 | 0.688
322.7 K, 49030 kPa, x1 = 0.6923 | 730.47 | 0.497
322.74 K, 24510 kPa, x1 = 0.6923 | 712.73 | 0.41
322.86 K, 98 kPa, x1 = 0.6923 | 688.08 | 0.325
322.95 K, 196130 kPa, x1 = 0.2 | 781.57 | 0.842
323.14 K, 98060 kPa, x1 = 0.2 | 743.21 | 0.525
323.23 K, 24510 kPa, x1 = 0.2 | 692.21 | 0.323
323.24 K, 49030 kPa, x1 = 0.2 | 714.09 | 0.388
323.28 K, 98 kPa, x1 = 0.2 | 664.43 | 0.256
323.53 K, 196130 kPa, x1 = 0.4823 | 791.05 | 0.962
323.71 K, 98060 kPa, x1 = 0.4823 | 753.36 | 0.589
323.72 K, 49030 kPa, x1 = 0.4823 | 723.85 | 0.434
323.73 K, 24510 kPa, x1 = 0.4823 | 705.99 | 0.358
323.86 K, 98 kPa, x1 = 0.4823 | 678.22 | 0.285
354.41 K, 196130 kPa, x1 = 0.2 | 767.99 | 0.675
354.53 K, 196130 kPa, x1 = 0.4823 | 778.99 | 0.757
354.58 K, 98060 kPa, x1 = 0.4823 | 737.84 | 0.478
354.59 K, 49030 kPa, x1 = 0.4823 | 705.39 | 0.354
354.61 K, 24510 kPa, x1 = 0.4823 | 683.97 | 0.291
354.84 K, 98060 kPa, x1 = 0.2 | 727.23 | 0.428
355.02 K, 24510 kPa, x1 = 0.2 | 671.58 | 0.259
355.04 K, 49030 kPa, x1 = 0.2 | 694.07 | 0.317
355.16 K, 98060 kPa, x1 = 0.6923 | 741.82 | 0.544
355.27 K, 49030 kPa, x1 = 0.6923 | 713.02 | 0.398
355.35 K, 196130 kPa, x1 = 0.6923 | 782.46 | 0.876
355.44 K, 24510 kPa, x1 = 0.6923 | 691.53 | 0.327
390.42 K, 196130 kPa, x1 = 0.4823 | 763 | 0.614
390.6 K, 196130 kPa, x1 = 0.6923 | 764.29 | 0.684
390.61 K, 98060 kPa, x1 = 0.4823 | 718.3 | 0.392
390.66 K, 24510 kPa, x1 = 0.6923 | 668.32 | 0.258
390.68 K, 98060 kPa, x1 = 0.6923 | 722.16 | 0.433
390.73 K, 24510 kPa, x1 = 0.4823 | 661.95 | 0.233
390.76 K, 49030 kPa, x1 = 0.4823 | 683.17 | 0.286
390.89 K, 49030 kPa, x1 = 0.6923 | 690.6 | 0.319
395.05 K, 196130 kPa, x1 = 0.2 | 750.63 | 0.535
395.31 K, 98060 kPa, x1 = 0.2 | 706.62 | 0.345
395.33 K, 49030 kPa, x1 = 0.2 | 668.64 | 0.253
395.52 K, 24510 kPa, x1 = 0.2 | 641.62 | 0.205
432.98 K, 196130 kPa, x1 = 0.2 | 733.67 | 0.451
433.17 K, 196130 kPa, x1 = 0.6923 | 744.1 | 0.549
433.2 K, 98060 kPa, x1 = 0.6923 | 698.66 | 0.349
433.33 K, 49030 kPa, x1 = 0.6923 | 664.02 | 0.255
433.38 K, 24510 kPa, x1 = 0.6923 | 641.38 | 0.204
433.51 K, 98060 kPa, x1 = 0.2 | 682.68 | 0.289
433.58 K, 49030 kPa, x1 = 0.2 | 642.37 | 0.213
433.62 K, 24510 kPa, x1 = 0.2 | 614.08 | 0.169
435.46 K, 196130 kPa, x1 = 0.4823 | 741.63 | 0.489
435.49 K, 24510 kPa, x1 = 0.4823 | 631.36 | 0.184
435.61 K, 98060 kPa, x1 = 0.4823 | 693.82 | 0.318
435.7 K, 49030 kPa, x1 = 0.4823 | 656.28 | 0.232
467.82 K, 196130 kPa, x1 = 0.4823 | 725.29 | 0.447
467.87 K, 196130 kPa, x1 = 0.2 | 715.63 | 0.403
467.95 K, 49030 kPa, x1 = 0.4823 | 636.15 | 0.207
467.96 K, 24510 kPa, x1 = 0.4823 | 610.74 | 0.162
468.04 K, 98060 kPa, x1 = 0.2 | 661.09 | 0.262
468.06 K, 98060 kPa, x1 = 0.4823 | 675.8 | 0.285
468.07 K, 49030 kPa, x1 = 0.2 | 620.58 | 0.19
468.18 K, 24510 kPa, x1 = 0.2 | 589.18 | 0.148
469.83 K, 98060 kPa, x1 = 0.6923 | 677.9 | 0.311
469.84 K, 196130 kPa, x1 = 0.6923 | 725.11 | 0.482
470.05 K, 49030 kPa, x1 = 0.6923 | 641.64 | 0.224
470.16 K, 24510 kPa, x1 = 0.6923 | 618.99 | 0.176
